Assay: Amount of clonazepam in blood, brain and skin after transdermal application (HPLC)
Conditions: rats
Protocol: In support of another embodiment of the present invention, a supporting experiment was conducted where the backs of 3 white male rats that weighed approximately 150 g. were shaved and the backs of the rats were shaved and washed with lukewarm water and approximately 25 cm^2 of the base of a transmembrane/transdermal penetration enhancer described in Example 14 was administered. The base contained 10 mg of clonazepam and after six hours from the time of the application, the rats were killed and blood, brain and skin were taken from the application area. The amount of clonazepam in the organs and tissues of the killed rats were identified by HPLC method.

[1] = base of Example 14 with 10 mg clonazepam on approx. 25 cm^2, six hours after application

O=C1CN=C(c2ccccc2Cl)c2cc([N+](=O)[O-])ccc2N1 [clonazepam]
amount of clonazepam in 1 cm^2 of the skin at the application area [1]: 0.04 ± 0.002 mg
amount of clonazepam in 1 cm^3 of blood [1]: 0.043 ± 0.002 mg
amount of clonazepam in 1 g of brain [1]: 0.016 ± 0.001 mg
amount of penetrated/permeated clonazepam through 25 cm^2 application area (base of Example 14 with 10 mg clonazepam, during 6 hours): 60 % of applied amount
